PMC4376724, “Differential Phenotypic and Functional Profiles of TcCA-2 -Specific Cytotoxic CD8^+ T Cells in the Asymptomatic versus Cardiac Phase in Chagasic Patients” (PLoS ONE, 2015)

Experiments:
HLA-A*02:01 = HLA-A*02:01 (Homo sapiens, UniProt P04439, D140Y/D185E/D98H/E176V/E277Q/G131W/G231S/I119V/I121R/I166T/I218V/L300P/L318F/N151K/N90K/P208A/P217A/Q86G/Q94H/R138H/R169H/T345S); assay: HLA-A*02:01 binding assay (surface stabilization on TAP-deficient T2 cells); settings: different peptide concentrations in duplicate, serum-free RPMI, overnight at room temperature, PE anti-HLA-A2 (BB7.2) flow cytometry, referred to 25 μM HB-ENV335-343 peptide
Protocol: TAP-deficient T2 cells were used for the HLA-A*02:01 binding assays and the K562-A2 cells for the HLA-A*02:01 restriction assay. The cells were cultured in complete RPMI medium supplemented with 10% of inactivated Fetal Calf Serum (iFCS), 2 mM glutamine, and 100 U/ml penicillin. K562-A2 cells, expressing the HLA-A*02:01 molecule were cultured in the presence of […] of G-418, as previously described. The T2 and K562-A2 cells were kindly provided by Dr. Pedro Romero (University of Lausanne) and by Dr Peter Ponsaerts (University of Antwerp, with the permission of Dr. Cedrik Britten from Johanes Gutenberg-University Mainz), respectively.
HLA-A*02:01 surface stabilization test was carried out as described in [42]. Briefly, TAP-deficient T2 cells were loaded with different concentrations of each peptide, in duplicate in serum-free RPMI medium, and incubated overnight at room temperature. Afterwards, the cells were stained with a PE-labeled HLA-A2-specific antibody (BB7.2 clone, BD biosciences) and analyzed by flow cytometry. The high-affinity HLA-A*02:01-binding peptide […] ([…]) was included as internal standard. Affinity data were calculated as the percentage of maximum complex stabilization, as described in [44]. The following equation was used: % of maximal stabilization = 100 x [(mean fluorescence with peptide)–(background mean fluorescence)]/[(mean fluorescence with 25 μM HBENV335-343 peptide)–(background mean fluorescence)]. Background value was obtained with cells incubated in the same conditions without peptide.
The percentage of maximal binding stabilization of these eight TcCA-2 peptides was evaluated using TAP-deficient T2 cells and different concentrations of each peptide. […] The maximal binding affinity is shown for each peptide in Table 1.

[1] = tested on: PBMCs from asymptomatic HLA-A*02:01 Chagas disease patients; assay: HLA-A*02:01 restriction assay: peptide-pulsed K562-A2 cells as APC, IFN-γ secretion by patient PBMC; type: cell-based, human; settings: K562-A2 cells pulsed with 1 mM peptide 1 h, co-cultured 30 h with PBMC of asymptomatic (IND) patients; positive = IFN-γ at least two folds un-stimulated cells

Sequence	% maximal stabilization (HLA-A*02:01) [%]	Chagas disease patient: patients with positive response in relation with the total number of patients per assay [1]
AIGGGKLPAL [TcCA-2_531-540]	20.89	0/9
SILQNVHATL [TcCA-2_489-498]	36.02	0/8
FANAPGVAQV [TcCA-2_452-461]	46.23	0/10
SAFGNHASTV [TcCA-2_550-559]	19.07	0/9
